Test results as given in patent publication US20250235543A1, “MODIFIED PROTEINS AND PROTEIN DEGRADERS” (Cullgen (Shanghai), Inc., priority 2021, published 2025).
Like-named read-outs stand apart in the source and are kept apart here.

What was measured:
cyclin D1 = test: Cyclin D1 percentage degradation in Calu-1 cells (immunoblotting); format: cell-based; conditions: 16 hours
Outline: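 Cells were rinsed once in cold PBS and lysed in cold RIPA buffer containing protease and phosphatase inhibitors, with gentle agitation at 4° C. for 30 min. Lysates were spun at 13,000 rpm for 10 min at 4° C., protein was measured by BCA, and samples were boiled in Laemmli buffer at 99° C. for 5 min before SDS-PAGE immunoblotting.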

CDK4 = target: T1, CDK4 (Homo sapiens, UniProt P11802); test: CDK4 percentage degradation in Calu-1 cells (immunoblotting); format: cell-based; conditions: for inhibition at 0.2 µM: read-out: CDK4 Degradation (200 nM); for inhibition at 10 µM: read-out: CDK4 Degradation (10 μM)
T1 construct: endogenous in cells; host or cells: Calu-1
Outline: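 Cultured cells were rinsed once in cold PBS and lysed in cold RIPA buffer containing protease and phosphatase inhibitors, with gentle agitation at 4° C. for 30 min. Lysates were centrifuged at 13,000 rpm for 10 min at 4° C., and protein was quantified by BCA. Samples were then separated by SDS-PAGE, detected with ECL, and the CDK4 bands quantified in Image Lab.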

T1 sequence (P11802 2-303 limits assumed): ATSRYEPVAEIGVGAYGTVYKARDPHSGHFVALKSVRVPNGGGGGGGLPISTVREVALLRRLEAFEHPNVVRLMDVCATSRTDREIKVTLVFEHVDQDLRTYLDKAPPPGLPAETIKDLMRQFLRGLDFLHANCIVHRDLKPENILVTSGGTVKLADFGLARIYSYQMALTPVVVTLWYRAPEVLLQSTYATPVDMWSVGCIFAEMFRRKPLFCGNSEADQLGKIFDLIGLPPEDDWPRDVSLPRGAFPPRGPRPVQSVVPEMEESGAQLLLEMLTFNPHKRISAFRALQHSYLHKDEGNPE
T1 sequence (P24385 whole entry partner): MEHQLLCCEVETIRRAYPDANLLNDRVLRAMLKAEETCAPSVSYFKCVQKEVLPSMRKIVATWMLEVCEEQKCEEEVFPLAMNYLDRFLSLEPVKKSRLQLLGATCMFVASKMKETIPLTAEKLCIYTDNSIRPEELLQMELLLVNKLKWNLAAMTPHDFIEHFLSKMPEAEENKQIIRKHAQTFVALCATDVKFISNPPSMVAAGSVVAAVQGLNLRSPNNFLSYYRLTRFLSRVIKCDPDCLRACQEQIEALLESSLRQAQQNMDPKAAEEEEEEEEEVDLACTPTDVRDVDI
T1 sequence (Q16531 2-1140 limits assumed, further chain): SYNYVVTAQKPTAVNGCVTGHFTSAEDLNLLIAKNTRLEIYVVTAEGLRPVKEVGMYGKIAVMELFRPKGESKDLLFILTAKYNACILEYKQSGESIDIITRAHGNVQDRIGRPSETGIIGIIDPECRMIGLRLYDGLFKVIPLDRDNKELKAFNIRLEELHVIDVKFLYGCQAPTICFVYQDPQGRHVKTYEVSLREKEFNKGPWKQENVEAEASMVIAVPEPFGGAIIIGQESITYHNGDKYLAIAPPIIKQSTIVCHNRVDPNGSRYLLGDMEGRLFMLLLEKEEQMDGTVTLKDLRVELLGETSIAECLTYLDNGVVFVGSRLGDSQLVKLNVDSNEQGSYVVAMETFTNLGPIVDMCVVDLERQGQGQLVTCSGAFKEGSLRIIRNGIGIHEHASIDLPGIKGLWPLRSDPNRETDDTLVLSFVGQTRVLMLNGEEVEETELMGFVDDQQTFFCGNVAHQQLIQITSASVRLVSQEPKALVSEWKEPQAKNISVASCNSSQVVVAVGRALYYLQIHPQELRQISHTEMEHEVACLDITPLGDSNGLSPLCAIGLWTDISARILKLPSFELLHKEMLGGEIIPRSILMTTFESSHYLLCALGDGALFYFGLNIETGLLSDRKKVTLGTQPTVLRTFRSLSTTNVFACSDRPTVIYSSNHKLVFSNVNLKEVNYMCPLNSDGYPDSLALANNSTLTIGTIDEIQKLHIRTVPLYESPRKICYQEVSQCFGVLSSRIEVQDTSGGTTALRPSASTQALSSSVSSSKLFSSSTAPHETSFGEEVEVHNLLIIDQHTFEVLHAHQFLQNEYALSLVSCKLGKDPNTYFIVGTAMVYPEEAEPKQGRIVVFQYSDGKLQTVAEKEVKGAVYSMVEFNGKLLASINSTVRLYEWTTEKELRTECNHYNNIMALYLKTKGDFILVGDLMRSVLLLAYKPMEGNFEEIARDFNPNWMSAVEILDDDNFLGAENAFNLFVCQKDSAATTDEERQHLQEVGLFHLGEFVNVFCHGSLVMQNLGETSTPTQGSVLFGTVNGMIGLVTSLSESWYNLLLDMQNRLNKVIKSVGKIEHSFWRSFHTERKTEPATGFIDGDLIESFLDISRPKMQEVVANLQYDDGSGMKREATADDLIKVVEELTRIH

CC(=O)c1c(C)c2cnc(Nc3ccc(N4CCN(CC(=O)NCCCCCNc5cccc(C(=O)Nc6nc(C)c(C)s6)c5C)CC4)cn3)nc2n(C2CCCC2)c1=O [CPD-100, 3-((5-(2-(4-(6-((6-Acetyl-8-cyclopentyl-5-methyl-7-oxo-7,8-dihydropyrido[2,3-d]pyrimidin-2-yl)amino)pyridin-3-yl)piperazin-1-yl)acetamido)pentyl)amino)-N-(4,5-dimethylthiazol-2-yl)-2-methylbenzamide]
CyclinD1 Degradation (200 nM) (cyclin D1): D (protein percentage degradation <30%) | inhibition at 0.2 µM (CDK4; Calu-1 cells, 200 nM, 16 hours): < 30%

COc1ccc(NC(=O)c2ccccc2NC(=O)COCCO[C@H]2CC[C@H](NC(=O)CN3CCN(c4ccc(Nc5ncc6c(C)c(C(C)=O)c(=O)n(C7CCCC7)c6n5)nc4)CC3)CC2)nn1 [CPD-366, 2-(2-(2-((trans-4-(2-(4-(6-((6-Acetyl-8-cyclopentyl-5-methyl-7-oxo-7,8-dihydropyrido[2,3-d]pyrimidin-2-yl)amino)pyridin-3-yl)piperazin-1-yl)acetamido)cyclohexyl)oxy)ethoxy)acetamido)-N-(6-methoxypyridazin-3-yl)benzamide]
CyclinD1 Degradation (200 nM) (cyclin D1): D (protein percentage degradation <30%) | inhibition at 0.2 µM (CDK4; Calu-1 cells, 200 nM, 16 hours): < 30%

Cc1nc(NC(=O)c2ccccc2NC(=O)CCOCCOCCOCCOCCOCCNC(=O)CN2CCN(c3ccc(Nc4ncc5cc(C(=O)N(C)C)n(C6CCCC6)c5n4)nc3)CC2)sc1C [CPD-298, 7-Cyclopentyl-2-((5-(4-(21-((2-((4,5-dimethylthiazol-2-yl)carbamoyl)phenyl)amino)-2,21-dioxo-6,9,12,15,18-pentaoxa-3-azahenicosyl)piperazin-1-yl)pyridin-2-yl)amino)-N,N-dimethyl-7H-pyrrolo[2,3-d]pyrimidine-6-carboxamide]
CyclinD1 Degradation (10 μM) (cyclin D1): A (protein percentage degradation >= 80%) | inhibition at 10 µM (CDK4; Calu-1 cells, 16 hours): 50 to 80%

CC(=O)c1c(C)c2cnc(Nc3ccc(N4CCN(C(=O)CCOCCOCCOCCOCCC(=O)Nc5ccccc5C(=O)Nc5nc(C)c(C)s5)CC4)cn3)nc2n(C2CCCC2)c1=O [CPD-176, 16-(4-(6-((6-Acetyl-8-cyclopentyl-5-methyl-7-oxo-7,8-dihydropyrido[2,3-d]pyrimidin-2-yl)amino)pyridin-3-yl)piperazin-1-yl)-N-(2-((4,5-dimethylthiazol-2-yl)carbamoyl)phenyl)-16-oxo-4,7,10,13-tetraoxahexadecanamide]
CyclinD1 Degradation (200 nM) (cyclin D1): A (protein percentage degradation >=80%) | inhibition at 0.2 µM (CDK4; Calu-1, 16 h): > 80%

CC(=O)c1c(C)c2cnc(Nc3ccc(N4CCN(C(=O)CCOCCOCCC(=O)Nc5ccccc5C(=O)Nc5nc(C)c(C)s5)CC4)cn3)nc2n(C2CCCC2)c1=O [CPD-128, 2-(3-(2-(3-(4-(6-((6-Acetyl-8-cyclopentyl-5-methyl-7-oxo-7,8-dihydropyrido[2,3-d]pyrimidin-2-yl)amino)pyridin-3-yl)piperazin-1-yl)-3-oxopropoxy)ethoxy)propanamido)-N-(4,5-dimethylthiazol-2-yl)benzamide]
CyclinD1 Degradation (200 nM) (cyclin D1): C (protein percentage degradation <50%, and >=30%) | inhibition at 0.2 µM (CDK4; Calu-1, 16 h): 50 to 80%

CC(=O)c1c(C)c2cnc(Nc3ccc(N4CCN(CC(=O)NCCCCCCCNc5cccc(C(=O)Nc6nc(C)c(C)s6)c5C)CC4)cn3)nc2n(C2CCCC2)c1=O [CPD-102, 3-((7-(2-(4-(6-((6-Acetyl-8-cyclopentyl-5-methyl-7-oxo-7,8-dihydropyrido[2,3-d]pyrimidin-2-yl)amino)pyridin-3-yl)piperazin-1-yl)acetamido)heptyl)amino)-N-(4,5-dimethylthiazol-2-yl)-2-methylbenzamide]
CyclinD1 Degradation (200 nM) (cyclin D1): A (protein percentage degradation >=80%) | inhibition at 0.2 µM (CDK4; Calu-1 cells, 200 nM, 16 hours): 50 to 80%

Cc1nc(NC(=O)c2ccccc2NC(=O)CCCCCNC(=O)CN2CCN(c3ccc(Nc4ncc5cc6n(c5n4)C4(CCCCC4)CNC6=O)nc3)CC2)sc1C [CPD-318, N-(4,5-Dimethylthiazol-2-yl)-2-(6-(2-(4-(6-((6′-oxo-7′,8′-dihydro-6′H-spiro[cyclohexane-1,9′-pyrazino[1′,2′:1,5]pyrrolo[2,3-d]pyrimidin]-2′-yl)amino)pyridin-3-yl)piperazin-1-yl)acetamido)hexanamido)benzamide]
CyclinD1 Degradation (10 μM) (cyclin D1): D (protein percentage degradation < 30%) | inhibition at 10 µM (CDK4; Calu-1 cells, 16 hours): 30 to 50%

CC(=O)c1c(C)c2cnc(Nc3ccc(N4CCN(CC(=O)NCCCCNc5cccc(C(=O)Nc6nc(C)c(C)s6)c5C)CC4)cn3)nc2n(C2CCCC2)c1=O [CPD-099, 3-((4-(2-(4-(6-((6-Acetyl-8-cyclopentyl-5-methyl-7-oxo-7,8-dihydropyrido[2,3-d]pyrimidin-2-yl)amino)pyridin-3-yl)piperazin-1-yl)acetamido)butyl)amino)-N-(4,5-dimethylthiazol-2-yl)-2-methylbenzamide]
CyclinD1 Degradation (200 nM) (cyclin D1): D (protein percentage degradation <30%) | inhibition at 0.2 µM (CDK4; Calu-1 cells, 200 nM, 16 hours): < 30%

Cc1nc(NC(=O)c2ccccc2NC(=O)CCCCCNC(=O)CN2CCN(c3ccc(Nc4ncc5cc(C(=O)N(C)C)n(C6CCCC6)c5n4)nc3)CC2)sc1C [CPD-290, 7-Cyclopentyl-2-((5-(4-(2-((6-((2-((4,5-dimethylthiazol-2-yl)carbamoyl)phenyl)amino)-6-oxohexyl)amino)-2-oxoethyl)piperazin-1-yl)pyridin-2-yl)amino)-N,N-dimethyl-7H-pyrrolo[2,3-d]pyrimidine-6-carboxamide]
CyclinD1 Degradation (10 μM) (cyclin D1): B (protein percentage degradation < 80%, and >= 50%) | inhibition at 10 µM (CDK4; Calu-1 cells, 16 hours): 30 to 50%

CC(=O)c1c(C)c2cnc(Nc3ccc(N4CCN(CC(=O)NCCOCCOCCOCCOCCOCCNc5ccc(C(=O)Nc6ccccc6)c(C)c5)CC4)cn3)nc2n(C2CCCC2)c1=O [CPD-027, 4-((1-(4-(6-((6-Acetyl-8-cyclopentyl-5-methyl-7-oxo-7,8-dihydropyrido[2,3-d]pyrimidin-2-yl)amino)pyridin-3-yl)piperazin-1-yl)-2-oxo-6,9,12,15,18-pentaoxa-3-azaicosan-20-yl)amino)-2-methyl-N-phenylbenzamide]
CyclinD1 Degradation (200 nM) (cyclin D1): D (protein percentage degradation <30%) | inhibition at 0.2 µM (CDK4; Calu-1, 16 h): < 30%

CC(=O)c1c(C)c2cnc(Nc3ccc(N4CCN(C(=O)CCCCCCCC(=O)Nc5ccccc5C(=O)Nc5nc(C)c(C)s5)CC4)cn3)nc2n(C2CCCC2)c1=O [CPD-160, 2-(9-(4-(6-((6-Acetyl-8-cyclopentyl-5-methyl-7-oxo-7,8-dihydropyrido[2,3-d]pyrimidin-2-yl)amino)pyridin-3-yl)piperazin-1-yl)-9-oxononanamido)-N-(4,5-dimethylthiazol-2-yl)benzamide]
CyclinD1 Degradation (200 nM) (cyclin D1): C (protein percentage degradation <50%, and >=30%) | inhibition at 0.2 µM (CDK4; Calu-1, 16 h): 50 to 80%

CC(=O)c1c(C)c2cnc(Nc3ccc(N4CCN(CC(=O)NCCOCCOCCC(=O)Nc5ccc(Cl)cc5C(=O)Nc5nc(C)c(C)s5)CC4)cn3)nc2n(C2CCCC2)c1=O [CPD-142, 2-(3-(2-(2-(2-(4-(6-((6-Acetyl-8-cyclopentyl-5-methyl-7-oxo-7,8-dihydropyrido[2,3-d]pyrimidin-2-yl)amino)pyridin-3-yl)piperazin-1-yl)acetamido)ethoxy)ethoxy)propanamido)-5-chloro-N-(4,5-dimethylthiazol-2-yl)benzamide]
CyclinD1 Degradation (200 nM) (cyclin D1): D (protein percentage degradation <30%) | inhibition at 0.2 µM (CDK4; Calu-1 cells, 200 nM, 16 hours): < 30%

Cc1nc(NC(=O)c2ccccc2NC(=O)CCOCCOCCOCCOCCNC(=O)CN2CCN(c3ccc(Nc4ncc5cc(C(=O)N(C)C)n(C6CCCC6)c5n4)nc3)CC2)sc1C [CPD-297, 7-Cyclopentyl-2-((5-(4-(18-((2-((4,5-dimethylthiazol-2-yl)carbamoyl)phenyl)amino)-2,18-dioxo-6,9,12,15-tetraoxa-3-azaoctadecyl)piperazin-1-yl)pyridin-2-yl)amino)-N,N-dimethyl-7H-pyrrolo[2,3-d]pyrimidine-6-carboxamide]
CyclinD1 Degradation (10 μM) (cyclin D1): A (protein percentage degradation >= 80%) | inhibition at 10 µM (CDK4; Calu-1 cells, 16 hours): 50 to 80%

Cc1nc(NC(=O)c2ccccc2NC(=O)CNC(=O)CN2CCN(Cc3ccc(Nc4ncc(F)c(-c5cc(F)c6nc(C)n(C(C)C)c6c5)n4)nc3)CC2)sc1C [CPD-272, N-(4,5-Dimethylthiazol-2-yl)-2-(2-(2-(4-((6-((5-fluoro-4-(4-fluoro-1-isopropyl-2-methyl-1H-benzo[d]imidazol-6-yl)pyrimidin-2-yl)amino)pyridin-3-yl)methyl)piperazin-1-yl)acetamido)acetamido)benzamide]
CyclinD1 Degradation (10 μM) (cyclin D1): D (protein percentage degradation < 30%) | inhibition at 10 µM (CDK4; Calu-1 cells, 16 hours): < 30%

CC(=O)c1c(C)c2cnc(Nc3ccc(N4CCN(CC(=O)NCCCC(=O)Nc5ccccc5C(=O)Nc5nc(C)c(C)s5)CC4)cn3)nc2n(C2CCCC2)c1=O [CPD-171, 2-(4-(2-(4-(6-((6-Acetyl-8-cyclopentyl-5-methyl-7-oxo-7,8-dihydropyrido[2,3-d]pyrimidin-2-yl)amino)pyridin-3-yl)piperazin-1-yl)acetamido)butanamido)-N-(4,5-dimethylthiazol-2-yl)benzamide]
CyclinD1 Degradation (200 nM) (cyclin D1): D (protein percentage degradation <30%) | inhibition at 0.2 µM (CDK4; Calu-1 cells, 200 nM, 16 hours): < 30%

CC(=O)c1c(C)c2cnc(Nc3ccc(N4CCN(CC(=O)NCCCCNc5ccc(C)c(C(=O)Nc6nc(C)c(C)s6)c5)CC4)cn3)nc2n(C2CCCC2)c1=O [CPD-088, 5-((4-(2-(4-(6-((6-Acetyl-8-cyclopentyl-5-methyl-7-oxo-7,8-dihydropyrido[2,3-d]pyrimidin-2-yl)amino)pyridin-3-yl)piperazin-1-yl)acetamido)butyl)amino)-N-(4,5-dimethylthiazol-2-yl)-2-methylbenzamide]
CyclinD1 Degradation (200 nM) (cyclin D1): D (protein percentage degradation <30%) | inhibition at 0.2 µM (CDK4; Calu-1 cells, 200 nM, 16 hours): < 30%
